The subject of assay [1] is breast carcinoma cell lines. The conditions noted are these: cited from earlier work.
For another assay, the system named is SKBR-3 cells. Kind of assay: HER2 ECD ELISA of conditioned media (HER2 shedding), SKBR-3 cells. The class given is cell-based, human.
For another assay, the system named is Fo5 tumors. Kind of assay: GM6001 injections in FVB mice with Fo5 xenograft tumors (serum HER2 ECD ELISA, p95 HER2 Western blot). The conditions noted are these: 100 mg/kg intraperitoneally daily for 3 days, day four. The class given is in vivo, mouse. The source says:
The Fo5 and f2: 1282 lines have been previously described (Finkle et al., Clin. Cancer Res. 10: 2499-2511 (2004)). These lines were derived from primary tumors from a MMTV HER2 transgenic mouse and passaged in the mammary fat pad of FVB mice.
Fo5 tumors were transplanted into FVB mice and allowed to grow to an average size of 400-600 mm^3 prior to initiating the study. GM6001 (3-[N-hydroxycarbomyl]-[2R]-isobutylpropionyl-L-tryptophan methylamide) was obtained from Calbiochem and reconstituted in a slurry of 4% carboxymethylcellulose/0.9% PBS and administered daily by intraperitoneal injection at 100 mg/kg body weight for 3 days. […] Tumors size was measured at day 0 and at day 4. […]
Serun from mice harboring Fo5 or f2: 1282 xenograft tumors was collected by cardiac puncture and HER2 ECD levels detected using a previously described HER2 ELISA (Finkle et al. Clin. Cancer Res. 10: 2499-2511 (2004)). […] The concentration of shed HER2 in serum or in conditioned media was determined from a four-parameter fit of a standard curve using purified recombinant HER2 ECD protein (Genentech) as a standard.
Fo5 and f2:1282 tumors were resuspended in lysis buffer with protease inhibitors and homogenized using a POLYTRON TISSUEMIZER™ (PT2 100) on ice. Tumor lysates were cleared of insoluble material by centrifugation and total protein levels were determined using a BCA protein assay kit. […]
On the technique in general: An ELISA detects its analyte on a solid surface through an enzyme-linked reagent.

Protocol for SKBR-3 cells: BT 474, MCF-7, and SKBR-3 cells were maintained in high-glucose DMEM:Ham's F12 (50:50) supplemented with 10% heat-inactivated FBS and 2 mM L-Glutamine. […] Cell lines were maintained at 37° C. in a humidified incubator supplied with 5% CO2. BT 474 and SKBR-3 cells were transiently transfected with constructs as described by electroporation using kit V according to the manufacturer's instructions (AMAXA™).
Serum was diluted 1:50 using assay buffer (PBS/0.5% BSA, 0.05% TWEEN® 20/10 ppm PROCLIN® 300/0.2% BGG/0.25% CHAPS/0.15 M NaCl/5mM EDTA (pH 7.4) followed by additional 1:2 serial dilutions. Shed HER2 was captured using a goat anti-HER2 polyclonal antibody (Genentech) onto NUNC® Maxisorp plates and detected using a biotin-conjugated rabbit anti-HER2 polyclonal antibody (Genentech) followed by a AMDEX™-strepavidin-horseradish peroxidase antibody (Amersham Pharmacia Biotech) following a procedure described previously (Sias et al., J. Immunol. Meth. 109:219-27 (1990)). For cell culture experiments, cells were treated as indicated and conditioned media was collected and diluted in assay buffer serially 1:2. The concentration of shed HER2 in serum or in conditioned media was determined from a four-parameter fit of a standard curve using purified recombinant HER2 ECD protein (Genentech) as a standard.
The pSIREN shRNA construct(s) or vector alone were transiently transfected into SKBR-3 and BT 474 cells using AMAXA™ kit V following manufacturer's recommendations. After 48 hours, conditioned media was collected and assayed for shed HER2 by HER2 ELISA and the cells were lysed directly on the plate using 2×Sample buffer.

For the compound `CNC(=O)[C@H](Cc1ccccc1)NC(=O)[C@H](CC(C)C)[C@H](CSc1cccs1)C(=O)NO` [BB-94], in assay [1], the “inhibition of HER2 ECD shedding” value is recorded as “inhibited HER2 ECD shedding”.
As for `CNC(=O)[C@H](Cc1c[nH]c2ccccc12)NC(=O)[C@@H](CC(=O)NO)CC(C)C` [GM6001, 3-[N-hydroxycarbomyl]-[2R]-isobutylpropionyl-L-tryptophan methylamide], in the assay with SKBR-3 cells (dose response), the “inhibition of HER2 shedding (HER2 ECD ELISA)” value is “dose dependently inhibited HER2 shedding”. Also, the “amount of p95 HER2 in tumor lysates compared to control animals” value in the assay with Fo5 tumors is “significant reduction”. For the same compound, the “serum HER2 ECD levels” value in the assay on Fo5 tumors (versus vehicle) is reported as “greater reduction”.
On to “Timp-1: naturally occurring peptides that regulate metalloprotease activity”, for which the “HER2 ECD levels in conditioned media” value with SKBR-3 cells (1 μg/ml) is “reduced HER2 ECD levels”.

Values taken from patent publication US20060177448A1, “Inhibiting HER2 shedding with matrix metalloprotease antagonists” (Genentech, Inc., priority 2005, published 2006).
